Assay results from patent publication US8173133B2, “Acyl pseudodipeptides which carry a functionalized auxiliary arm” (OM Pharma, priority 1999, dated 2012).
≈ marks a conversion by molar mass, not a printed value.

Assays:
bone marrow stem cells = experiment: bone marrow stem cell proliferation (XTT); assay type: cell-based, C57/BL6 mice; conditions: for Max amplitude: 7 days, XTT 492 nm; for Min amplitude: blank ± 3× standard deviation; for Max concentration: concentration at maximum amplitude; for EC50 conc: concentration corresponding to 50% of maximum amplitude; for Min concentration: lowest concentration inducing a significant proliferation
From the text: 6-week old male C57/BL6 mice are killed by CO2 inhalation. The hip, femur, tibia and hind leg bones are removed. The marrow is extracted from the bone lumen by injecting Dulbecco's Modified Eagle Medium (DH medium) from the end portions which had been excised. The stem cells are washed and suspended again in DH medium supplemented with 20% foetal calf serum (FCS) The cell concentration is adjusted to 500000 cells/ml.
Products previously dissolved in DH medium supplemented with 20% FCS, amino acids and antibiotics are serially diluted directly into a microtiter plate. The products are tested in triplicate and each microtiter plate includes a negative control containing plain medium. The final volume in each well is 100 μl.
100 μl of the cell suspension are added to diluted solutions of products and the cells are incubated for 7 days in an incubator at 37° C., under 8% CO2 and a moisture saturated atmosphere. Cell proliferation is determined by measuring the […] of a chromogenic substrate XTT (2,3-bis[2-methoxy-4-nitro-5-sulphophenyl]-2H-tetrazolium-5-carboxanilide) in mitochondria of viable cells.
At the end of the incubation period, 50 μl of the XTT substrate solution (1 mg/ml XTT+0.008 mg/ml phenazine methosulfate) are added to each well. After an 8 hour incubation period at 37° C. under 8% CO2 in a moisture saturated incubator, the microtiter plates are read with a spectrophotometer at 492 nm against a reference sample at 690 nm.
Results are expressed as mean value±standard deviation and plotted as a dose versus response curve. Values for a negative control composed of DH medium (mean±standard deviation) are also graphically shown.
From this dose versus response curve, 3 curve variables are computed:
Max: maximum curve amplitude and corresponding concentration
EC50: concentration corresponding to 50% of maximum amplitude
Min: lowest concentration inducing a significant proliferation corresponding to the blank±3× standard deviation value
Concentration values corresponding to EC50 and Min are determined from line segments joining different points on the curve.
If the curve has no plateau phase but an ascending configuration for the highest concentration being tested, a “>” sign is shown before Max and EC50 values.

[1] = system: human peripheral blood mononuclear cells; experiment: inhibition of E. coli LPS-induced α TNF production in human peripheral blood mononuclear cells; assay type: cell-based; conditions: product 10 μg/ml; for 50% inhibition LPS: LPS concentration at which α TNF production is 50% of control; for max. Inhibition LPS: LPS concentration corresponding to maximum inhibition
Description: (§1) Mononuclear cells of peripheral blood are recovered from buffy coats of 6 healthy donors. Such buffy coat cells are resuspended and mononuclear cells are isolated by centrifugation on a Ficoll-Paque gradient (Amersham Pharmacia). Purified mononuclear cells are resuspended into RPMI-1640 medium supplemented with 10% FCS, antibiotics, mercaptoethanol and L-glutamine. Cell concentration is adjusted to 2×10^6 viable cells/ml.
Product mediated Inhibition is determined by preincubating those products with mononuclear cells, and adding, 1 hour later, serially diluted solutions of LPS capable of inducing α TFN production. […] E. coli LPS is serially diluted (10-fold dilution) to be in the range of 1 to 0.00001 μg/ml
50 μl of 10 μg/ml dilute product solutions in RPMI 1640 medium are dispensed into a microtiter plate. Each assay (10 μg/ml product concentration+dilute E. coli LPS) is run in triplicates and each microtiter plate includes a negative control comprised of plain medium. LPS-induced α TNF production (without inhibitor) is determined by adding E. coli LPS dilutions to RPMI medium.
100 μl of the cell suspension are added to each well containing dilutions of either product or control. Cells are incubated with the products for 1 hour in an incubator at 37° C., under 5% CO2 and a moisture saturated atmosphere.
At the end of the pre-incubation period, 50 μl of serially diluted solutions of E. coli LPS are added. Incubation of mononuclear cells with the product and LPS is extended for 18 hours. At the end of the cell activation period, the microtiter plates are centrifuged, and the supernatants are pooled and frozen at −80° C. as aliquots until time of ELISA assay.
Concentration of αTNF secreted by mononuclear cells is determined by chemiluminescent ELISA (QuantiGlo #QTAOO R&D kit). 4-fold dilutions of supernatant fluid are dispensed into each well of the microtiter plate to which anti-human αTNF antibodies are bound. The microtiter plate is incubated for 4 hours at room temperature. After washing, peroxidase-conjugated anti-human αTNF antibody is added. Following a 2 hour incubation period and a thorough washing, a chemiluminescent substrate is added and chemilunescence is read after 20 minutes. αTNF content in the supernatant fluid is determined with respect to a standard curve covering the 7000 to 0.7 pg/ml range.
Inhibition is characterized by the E. coli LPS concentration which elicits 50% production of α TNF during co-incubation in comparison to a control including only RPMI. This concentration increases as product inhibition activity becomes stronger. Knowing inhibition values of α TNF production, this concentration is given by calculating 100-(αTNF production induced by product and LPS)/(αTNF production induced by LPS alone)*100. From these inhibition data, concentration is determined by linear regression along the line segment which joins 2 LPS dilutions giving approx. 50% inhibition.
Product ability to inhibit α TNF production in mononuclear cells in response to LPS is further characterized by maximum inhibition. […] Results are calculated from a representative experience using all products.

[2] = system: human peripheral blood mononuclear cells; experiment: α TNF production by human peripheral blood mononuclear cells; assay type: cell-based; conditions: 18 hours
Description: as §1, with “cells/ml” for “cells/ml.”
100 μl of each one of these solutions of acyl dipeptide-like compounds bearing an accessory functional side chain spacer, diluted 100-, 10- or 1-fold in RPMI medium 1640, are dispensed into a microtiter plate. Samples are tested in triplicates, and each microtiter plate includes a negative control made up of plain medium. Dilutions of E. coli LPS (ranging grom 1 to 0.00001 μg/ml) are used as a positive control.
100 μl of the cell suspension are added to each well containing product dilute solutions or control. Cells are incubated with the products for 18 hours in an incubator at 37° C., under 5% CO2 and a moisture saturated atmosphere.
At the end of the incubation period, microtiter plates are centrifuged, and the supernatant fluids are pooled and frozen at −80° C. as aliquots until time of ELISA assay.
Concentration of α TNF secreted by mononuclear cells is determined by chemiluminescent ELISA (QuantiGlo #QTAOO R&D kit). 4-fold supernatant fluid dilutions are dispensed into each well of the microtiter plate to which anti-αTNF antibodies are bound. The microtiter plate is incubated for 4 hours at room temperature. After washing, peroxidase-conjugated anti-human a TNF antibody is added. Following a 2 hour incubation period and thorough washing, a chemiluminescent substrate is added and chemilunescence is read after 20 minutes. α TNF content in the supernatant fluid is determined with respect to a standard curve covering the 7000 to 0.7 pg/ml range.
Results are expressed in pg/ml of α TNF produced. Results derive from an experiment representative of acyl-dipeptide-like compound activity

Compound | Max amplitude (bone marrow stem cells) [O.D] | Min amplitude (bone marrow stem cells) [O.D] | Max concentration (bone marrow stem cells) [µg/mL] | EC50 conc (bone marrow stem cells) [µg/mL] | Min concentration (bone marrow stem cells) [µg/mL] | max. Inhibition [1] [%] | 50% inhibition LPS [1] [µg/mL] | max. Inhibition LPS [1] [µg/mL] | α TNF produced ([2]; product 1 μg/ml) [pg/mL] | α TNF produced ([2]; product 10 μg/ml) [pg/mL] | α TNF produced ([2]; product 100 μg/ml) [pg/mL]
CCCCCCCCCCCC(=O)O[C@H](CCCCCCCCCCC)CC(=O)NC(CCOP(=O)(O)O)C(=O)NCCC[C@H](COC(=O)CCCCCN)NC(=O)C[C@H](O)CCCCCCCCCCC (mixture of isomers) [OM-197-MP-AC (R/S, R), (3RS,9R)-3-[(R)-3-dodecanoyloxytetradecanoylamino]-4oxo-5-aza-9-[(R)-3-hydroxytetradecanoylamino]-decan-10-ol 1-dihydrogen-phosphate(6-aminohexanoate)] | 2.12 | 0.80 | 25 | 3.1 (≈ 2.96 µM) | 0.71 | 100 | >1 | 0.00002 | 244 | 156 | 160
CCCCCCCCCCCC(=O)O[C@H](CCCCCCCCCCC)CC(=O)N[C@H](CC(=O)NCCCN)C(=O)NCCC[C@H](CO)NC(=O)C[C@H](O)CCCCCCCCCCC [OM-197-AP, N—[(R)-3-dodecanoyloxytetradecanoyl]-D-aspartic acid, α-N-{(4R)-5-hydroxy-4-[(R)-3-hydroxy-tetradecanoylamino]pentyl}-amide β-N-(3-aminopropyl)amide] | 1.49 | 0.80 | 25 | 2.2 (≈ 2.38 µM) | 0.41 | 100 | >1 | 0.016 | 428 | 116 | 84
CCCCCCCCCCCC(=O)O[C@H](CCCCCCCCCCC)CC(=O)N[C@H](CC(=O)N[C@@H](CC(=O)O)C(=O)O)C(=O)NCCC[C@H](CO)NC(=O)C[C@H](O)CCCCCCCCCCC [OM-197-Asp, N—[(R)-3-dodecanoyloxytetradecanoyl]-D-aspartic acid, α-N-{(4R)-5-hydroxy-4-[(R)-3-hydroxytetradecanoylamino]-pentyl}Amide β-N-[(1S)-1,2-Dicarboxyethyl]Amide] | 1.22 | 0.80 | 25 | 5.0 (≈ 5.08 µM) | 1.89 | 100 | >1 | 0.00036 | 0 | 28 | 80
CCCCCCCCCCCC(=O)O[C@H](CCCCCCCCCCC)CC(=O)N[C@H](CC(=O)N[C@@H](CC(=O)O)C(=O)O)C(=O)NCCC[C@H](COC(=O)CCCCCN)NC(=O)C[C@H](O)CCCCCCCCCCC [OM-197-Asp-AC, N—[(R)-3-dodecanoyloxytetradecanoyl]-D-aspartic acid, α-N-{(4R)-5-(6-aminohexanoyloxy)-4-[(R)-3-hydroxytetradecanoyl-amino]-pentyl}amide β-N-[(1S)-1,2-dicarboxyethyl]Amide] | 1.33 | 0.80 | 50 | 2.8 (≈ 2.55 µM) | 1.27 | 100 | 0.29 | 0.0058 | 20 | 172 | 132
CCCCCCCCCCCC(=O)O[C@H](CCCCCCCCCCC)CC(=O)NC(CCOP(=O)(O)O)C(=O)NCCCC(COC(=O)CCCCC(O)CO)NC(=O)C[C@H](O)CCCCCCCCCCC (stereo partly drawn) [OM-197-FV6, 3-[(R)-dodecanoyloxytetradecanoylamino]-4oxo-5-aza-9-[(R)-3-hydroxytetradecanoylamino]-decan-1,10-diol 1-dihydrogenphate 10-(6,7-dihydroxyheptanoate)] | 1.52 | 0.80 | 50 | 5.7 (≈ 5.29 µM) | 1.60 | 100 | >1 | 0.014 | 0 | 104 | 88
CCCCCCCCCCCC(=O)O[C@H](CCCCCCCCCCC)CC(=O)NC(CCOP(=O)(O)O)C(=O)NCCCC(COC(=O)CCCCCO)NC(=O)C[C@H](O)CCCCCCCCCCC (stereo partly drawn) [OM-197-FV8, 3-[(R)-3-dodecanoyloxytetradecanoylamino]-4-oxo-5-aza-9-[(R)-3-hydroxytetradecanoylamino]-decan-1,10-diol 1-dihydrogenphosphate 10-(6-hydroxyhexanoate)] | 1.07 | 0.80 | 25 | 1.8 (≈ 1.72 µM) | 1.24 | 100 | >1 | 0.0033 | 12 | 100 | 252
